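Values below derive from 48-hour exposures of cells grown in 96-well plates, with endpoints linearly interpolated between the two concentrations bracketing the appropriate inhibition level. GI50 is the concentration that inhibits growth by half.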 Calls of active or inactive are those of the source. Cut-off read from the data, not from the text of the source: active = GI50 up to about 1.1 µM and inactive = higher.
Key:
Experiment in all cases: NCI-60 cell line screen, 48 h
OVCAR-8 = tested on: OVCAR-8
SN12C = tested on: SN12C
OVCAR-4 = tested on: OVCAR-4
ACHN = tested on: ACHN
CAKI-1 = tested on: CAKI-1
NCI-H522 = tested on: NCI-H522
OVCAR-3 = tested on: OVCAR-3
SF-268 = tested on: SF-268
MDA-MB-231 = tested on: MDA-MB-231
Hs-578T = tested on: Hs-578T
SF-539 = tested on: SF-539
MDA-N = tested on: MDA-N
SW-620 = tested on: SW-620
NCI/ADR-RES = tested on: NCI/ADR-RES
NCI-H226 = tested on: NCI-H226
SNB-19 = tested on: SNB-19
SF-295 = tested on: SF-295
HT-29 = tested on: HT-29
RPMI-8226 = tested on: RPMI-8226

Structure (SMILES) | GI50 (OVCAR-8) | GI50 (SN12C) | GI50 (OVCAR-4) | GI50 (ACHN) | GI50 (CAKI-1) | GI50 (NCI-H522) | GI50 (OVCAR-3) | GI50 (SF-268) | GI50 (MDA-MB-231) | GI50 (Hs-578T) | GI50 (SF-539) | GI50 (MDA-N) | GI50 (SW-620) | GI50 (NCI/ADR-RES) | GI50 (NCI-H226) | GI50 (SNB-19) | GI50 (SF-295) | GI50 (HT-29) | GI50 (RPMI-8226)
CC1=CC(C/C(C)=C/COc2ccc3ccc(=O)oc3c2)OC1=O (stereo not given) | > 100 µM (inactive) | > 100 µM (inactive) | > 100 µM (inactive) | > 100 µM (inactive) | > 100 µM (inactive) | > 100 µM (inactive) | > 100 µM (inactive) | > 100 µM (inactive) | 5.66 µM (inactive) | > 100 µM (inactive) | > 100 µM (inactive) | 68.9 µM (inactive) | > 100 µM (inactive) | 27.4 µM (inactive) | > 100 µM (inactive) | > 100 µM (inactive) | > 100 µM (inactive) | > 100 µM (inactive) | –
CC(C)(C)OC(=O)C(C1NC(C(=O)O)C(C)(C)S1)N1C(=O)c2ccccc2C1=O (stereo not given) | > 100 µM (inactive) | > 100 µM (inactive) | > 100 µM (inactive) | > 100 µM (inactive) | > 100 µM (inactive) | > 100 µM (inactive) | > 100 µM (inactive) | > 100 µM (inactive) | > 100 µM (inactive) | > 100 µM (inactive) | > 100 µM (inactive) | > 100 µM (inactive) | > 100 µM (inactive) | > 100 µM (inactive) | – | > 100 µM (inactive) | > 100 µM (inactive) | > 100 µM (inactive) | > 100 µM (inactive)
CC1=CC(O)CC(C)(C)C1/C=C/C(C)=C/C=C/C(C)=C/C=C/C=C(C)/C=C/C=C(C)/C=C/C1=C(C)CC(O)CC1(C)C (stereo not given) | 19.7 µM (inactive) | – | 28.8 µM (inactive) | 16.6 µM (inactive) | 23.2 µM (inactive) | 15.2 µM (inactive) | 17.3 µM (inactive) | – | 13.5 µM (inactive) | 80.5 µM (inactive) | – | 18.7 µM (inactive) | 19.1 µM (inactive) | 24.5 µM (inactive) | 21.4 µM (inactive) | 53.2 µM (inactive) | 23.9 µM (inactive) | 14.9 µM (inactive) | 28.2 µM (inactive)
CN(Cc1c2ccccc2cc2ccccc12)S(=O)(=O)c1ccc(-c2c3nc(c(-c4ccc(S(=O)(=O)N(C)Cc5c6ccccc6cc6ccccc56)cc4)c4ccc([nH]4)c(-c4ccc(S(=O)(=O)N(C)Cc5c6ccccc6cc6ccccc56)cc4)c4nc(c(-c5ccc(S(=O)(=O)N(C)Cc6c7ccccc7cc7ccccc67)cc5)c5ccc2[nH]5)C=C4)C=C3)cc1 | > 100 µM (inactive) | > 100 µM (inactive) | > 100 µM (inactive) | > 100 µM (inactive) | > 100 µM (inactive) | > 100 µM (inactive) | > 100 µM (inactive) | > 100 µM (inactive) | > 100 µM (inactive) | 57.8 µM (inactive) | 99.1 µM (inactive) | > 100 µM (inactive) | > 100 µM (inactive) | > 100 µM (inactive) | – | 44 µM (inactive) | 63.7 µM (inactive) | > 100 µM (inactive) | > 100 µM (inactive)
CN(C)CCNc1ncnc2[nH]c(-c3ccc4ccccc4c3)nc12 | > 100 µM (inactive) | > 100 µM (inactive) | > 100 µM (inactive) | > 100 µM (inactive) | > 100 µM (inactive) | > 100 µM (inactive) | > 100 µM (inactive) | > 100 µM (inactive) | > 100 µM (inactive) | > 100 µM (inactive) | – | > 100 µM (inactive) | > 100 µM (inactive) | > 100 µM (inactive) | > 100 µM (inactive) | > 100 µM (inactive) | > 100 µM (inactive) | > 100 µM (inactive) | > 100 µM (inactive)
COc1ccccc1N1C(=O)/C(=C\c2cccc(Oc3ccccc3)c2)SC1c1ccccc1 (stereo not given) | 31.3 µM (inactive) | 30.2 µM (inactive) | 30.6 µM (inactive) | 35.5 µM (inactive) | > 100 µM (inactive) | 24.1 µM (inactive) | 27.7 µM (inactive) | 38 µM (inactive) | > 100 µM (inactive) | 39.4 µM (inactive) | 34.5 µM (inactive) | 23.9 µM (inactive) | 17.8 µM (inactive) | 59.6 µM (inactive) | – | 31 µM (inactive) | 18.7 µM (inactive) | 32.4 µM (inactive) | 24.6 µM (inactive)
CCOC(=O)CCC(NC(=O)c1ccc(OCc2nc3ccccc3n3cccc23)cc1)C(=O)OCC (stereo not given) | 33.5 µM (inactive) | > 100 µM (inactive) | 59.7 µM (inactive) | 54.5 µM (inactive) | > 100 µM (inactive) | 6.59 µM (inactive) | 63.7 µM (inactive) | 49.3 µM (inactive) | > 100 µM (inactive) | 64.4 µM (inactive) | 46.8 µM (inactive) | > 100 µM (inactive) | 11.6 µM (inactive) | > 100 µM (inactive) | > 100 µM (inactive) | 55.5 µM (inactive) | 64.3 µM (inactive) | 25.5 µM (inactive) | –
CC(C)(C)OC(=O)n1c2ccccc2c2c(=O)nc(N3CCCCC3)sc21 | > 100 µM (inactive) | > 100 µM (inactive) | > 100 µM (inactive) | > 100 µM (inactive) | > 100 µM (inactive) | > 100 µM (inactive) | > 100 µM (inactive) | 58.9 µM (inactive) | > 100 µM (inactive) | > 100 µM (inactive) | > 100 µM (inactive) | > 100 µM (inactive) | > 100 µM (inactive) | > 100 µM (inactive) | – | > 100 µM (inactive) | > 100 µM (inactive) | > 100 µM (inactive) | > 100 µM (inactive)
COC(=O)CC(C)(N[S+]([O-])c1ccc(C)cc1)c1ccccc1 (stereo not given) | – | > 100 µM (inactive) | > 100 µM (inactive) | > 100 µM (inactive) | – | > 100 µM (inactive) | > 100 µM (inactive) | > 100 µM (inactive) | > 100 µM (inactive) | > 100 µM (inactive) | > 100 µM (inactive) | > 100 µM (inactive) | > 100 µM (inactive) | > 100 µM (inactive) | > 100 µM (inactive) | > 100 µM (inactive) | > 100 µM (inactive) | > 100 µM (inactive) | > 100 µM (inactive)
C=C(C)C1Cc2c(cc(OC)c3c(=O)c4cccc(O)c4oc23)O1 (stereo not given) | 21.6 µM (inactive) | 28.6 µM (inactive) | 18.7 µM (inactive) | 18.2 µM (inactive) | 16.6 µM (inactive) | 16.6 µM (inactive) | – | 20.4 µM (inactive) | 23.9 µM (inactive) | 25.6 µM (inactive) | 18.4 µM (inactive) | 20 µM (inactive) | 53.1 µM (inactive) | 24.8 µM (inactive) | 21.2 µM (inactive) | 26.3 µM (inactive) | 17.3 µM (inactive) | 67.1 µM (inactive) | –
COC(=O)c1c2c(c3[nH]c4ccccc4c3c1C(=O)OC)C(=O)C1=C(C2=O)C2(Cl)C(Cl)C(Cl)C1(Cl)C2(Cl)Cl (stereo not given) | 1.75 µM (inactive) | 1.94 µM (inactive) | 1.84 µM (inactive) | 1.92 µM (inactive) | 3.18 µM (inactive) | 1.38 µM (inactive) | 2.33 µM (inactive) | 0.436 µM (active) | 1.85 µM (inactive) | 3.13 µM (inactive) | 2.07 µM (inactive) | 0.6 µM (active) | 0.353 µM (active) | 2.62 µM (inactive) | – | 3.4 µM (inactive) | 3.63 µM (inactive) | 2.55 µM (inactive) | 1.19 µM (inactive)
CSC(=S)CC(O)[C@@H]1CC2c3ccccc3C1c1ccccc12 (stereo not given in full) | 14.9 µM (inactive) | 18.7 µM (inactive) | 12.1 µM (inactive) | 13.6 µM (inactive) | – | 2.82 µM (inactive) | 8.51 µM (inactive) | 15.4 µM (inactive) | 23.8 µM (inactive) | 15 µM (inactive) | 17.9 µM (inactive) | 11.7 µM (inactive) | 4.81 µM (inactive) | 12.6 µM (inactive) | 9.06 µM (inactive) | 11.2 µM (inactive) | 16.6 µM (inactive) | 4.33 µM (inactive) | 3.11 µM (inactive)
O=C(Nc1ccc(Cl)cc1)NS(=O)(=O)c1coc2cc(F)ccc2c1=O | > 100 µM (inactive) | > 100 µM (inactive) | > 100 µM (inactive) | 16.4 µM (inactive) | > 100 µM (inactive) | 67.9 µM (inactive) | > 100 µM (inactive) | > 100 µM (inactive) | > 100 µM (inactive) | > 100 µM (inactive) | 87.7 µM (inactive) | > 100 µM (inactive) | > 100 µM (inactive) | > 100 µM (inactive) | > 100 µM (inactive) | > 100 µM (inactive) | > 100 µM (inactive) | > 100 µM (inactive) | –
c1coc(-c2nccc3c2[nH]c2ccccc23)c1 | > 100 µM (inactive) | > 100 µM (inactive) | > 100 µM (inactive) | > 100 µM (inactive) | > 100 µM (inactive) | > 100 µM (inactive) | > 100 µM (inactive) | > 100 µM (inactive) | > 100 µM (inactive) | > 100 µM (inactive) | > 100 µM (inactive) | > 100 µM (inactive) | > 100 µM (inactive) | > 100 µM (inactive) | 29.1 µM (inactive) | > 100 µM (inactive) | > 100 µM (inactive) | > 100 µM (inactive) | –
O=c1c(C(c2ccc(/C=C/c3ccccc3)cc2)c2c(O)oc3ccccc3c2=O)c(O)oc2ccccc12 | 20.2 µM (inactive) | 21.8 µM (inactive) | 35.6 µM (inactive) | 18.8 µM (inactive) | 23 µM (inactive) | 18.6 µM (inactive) | 36 µM (inactive) | 22.4 µM (inactive) | 28.7 µM (inactive) | 26.8 µM (inactive) | – | 21.8 µM (inactive) | 37.9 µM (inactive) | 24.9 µM (inactive) | 28.2 µM (inactive) | 46.9 µM (inactive) | – | 20.3 µM (inactive) | 27.2 µM (inactive)
